This experiment has as its target PD-L1 (Homo sapiens (Human), UniProt Q9NZQ7). The experiment in a line: HTRF Assay (PD-1/PD-L1). Type of experiment: binding. To be noted: PD-L1 His protein 6 nM, PD-1 Fc protein 6 nM. As to the method:
PD-L1 small molecule inhibitors were diluted by 3-fold starting from 20 μM and a final concentration of 0.001 μM and added to the well. PD-1 Fc protein was added at the final concentration of 6 nM. PD-L1 His protein, PD-L1 small molecule inhibitors, and PD1 Fc proteins were added to the well in this order, with each 5 μl volume, and were incubated for 15 minutes at room temperature. […] The plate was read using PerkinElmer Envision plate reader and data was analyzed by Prism 6 software. Results are illustrated in Table 1
In general terms: In TR-FRET formats the signal depends on donor and acceptor labels being close together.

The structures appear in SMILES notation.

PD-L1, sequence (Q9NZQ7 19-238): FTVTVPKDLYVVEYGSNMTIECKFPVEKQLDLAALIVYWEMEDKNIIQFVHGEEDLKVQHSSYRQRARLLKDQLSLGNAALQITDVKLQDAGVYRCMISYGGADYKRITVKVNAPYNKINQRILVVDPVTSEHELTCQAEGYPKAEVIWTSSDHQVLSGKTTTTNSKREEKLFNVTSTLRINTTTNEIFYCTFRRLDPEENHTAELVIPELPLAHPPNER

A word on the IC50: it is the point on the concentration scale where inhibition reaches its midpoint. `Cc1c(COc2cc(OCc3cncc(C#N)c3)c(CN3CCCC[C@H]3C(=O)O)cc2Cl)cccc1-c1cccc(COc2cc(OCc3cncc(C#N)c3)c(CN3CCCC[C@H]3C(=O)O)cc2Cl)c1C` [Example 27, (2S)-1-[[4-[[3-[3-[[4-[[(2S)-2-Carboxy-1-piperidyl]methyl]-2-chloro-5-[(5-cyano-3-pyridyl)methoxy]phenoxy]methyl]-2-methyl-phenyl]-2-methyl-phenyl]methoxy]-5-chloro-2-[(5-cyano-3-pyridyl)methoxy]phenyl]methyl] piperidine-2-carboxylic acid] showed a concentration for half-maximal inhibition (IC50) of 1.3 nM.
Molecule `COc1cc(OCc2cccc(-c3cccc(COc4cc(OC)c(CN5CCCC[C@H]5C(=O)O)cc4Cl)c3C)c2C)c(Cl)cc1CN1CCCC[C@H]1C(=O)O` [Example 29, (2S)-1-[[4-[[3-[3-[[4-[[(2S)-2-carboxy-1-piperidyl]methyl]-2-chloro-5-methoxy-phenoxy]methyl]-2-methyl-phenyl]-2-methyl-phenyl]methoxy]-5-chloro-2-methoxy-phenyl]methyl]piperidine-2-carboxylic acid] yielded an IC50 of 1.2 nM.
